By melting point is commonly meant the temperature of the solid-liquid transition. Regarding `CCCCn1c(=O)[nH]c(=O)c2c1nc(CCl)n2CC`, the melting point was 172 to 174 °C.

`COCCNC(=O)c1ccc(Cl)nc1` displayed a melting point of 112 to 114 °C.

`Cc1ccc(S(=O)(=O)Nc2ccccc2C(=O)O)cc1` showed a melting point of 231 to 233 °C.

Consider `N#CCc1c[nH]c2ccc(Br)cc12`, for which the melting point was 103 to 105 °C.

`N#CCc1nc2cc(Cl)ccc2c(=O)[nH]1` registered a melting point of 282 to 284 °C.

With `NNC(=O)C1COCCO1` (centres undefined), the melting point was in the range of 106 to 108 °C.

As to `CCCn1c(S)nc2cc(S(N)(=O)=O)ccc21`, the melting point was in the range of 190 to 194 °C.

`Cc1nc2scc(C)n2c1C=O` showed a melting point of 153 to 155 °C.

Turning to `CN1CCC(N(C)c2ccc(N)cc2)CC1`, the melting point fell in the range of 62 to 64 °C.

Consider `NS(=O)(=O)c1cnn(-c2ccccc2)c1`, for which the melting point is 196 to 198 °C.

Molecule `O=C(O)CS(=O)(=O)CC(=O)Nc1cccc(Br)c1` yielded a melting point of 165 to 167 °C.

`CSCc1nnc(S)o1`: the melting point fell in the range of 71 to 73 °C.

As for `O=C(O)C1Cc2ccccc2CN1S(=O)(=O)c1ccc(F)cc1` (centres undefined), the melting point was 99 to 101 °C.

As for `CCCCc1ccc(NC(=O)/C=N/O)cc1`, the melting point lay within 120 to 122 °C.

`N#CCN1CCC(O)CC1` returned a melting point of 76 to 78 °C.

`CC(C)(C(=O)O)c1ccc(-c2ccccc2)cc1` gave a melting point of 173 to 175 °C.

The molecule `O=C(O)c1ccc(Cl)c(N2CCCS2(=O)=O)c1` showed a melting point of 212 to 214 °C.

`CC(=O)N1CCC(C(=O)O)(c2ccccc2)CC1` showed a melting point of 207 to 209 °C.

`O=C(Nc1ccc(F)cc1)C1CCc2ccccc2N1` (centres undefined) yielded a melting point of 115 to 117 °C.

`OCc1nccc(Cl)c1Cl` gave a melting point of 59 to 61 °C.

As to `Cc1ccc(C(=O)NCCC(=O)O)c(O)c1`, the melting point is 159 to 161 °C.

`CCOc1ccc(NC2CCN(CC(F)(F)F)CC2)cc1`: the melting point was in the range of 54 to 56 °C.

In turn, `COc1ccc(C(N)c2ccccc2OC)cc1` (centres undefined) returned a melting point of 58 to 60 °C.

`Nc1nc2cnc(Cl)nc2s1`: the melting point is 209 to 211 °C.

Molecule `CCOC(=O)CS(=O)(=O)Cc1ccccc1` came in with a melting point of 49 to 51 °C.

Molecule `COc1ccc(-c2csc(C)n2)cc1OC` came in with a melting point of 74 to 76 °C.

Molecule `NNC(=O)CSc1nnc(-c2ccccc2)n1-c1ccccc1` yielded a melting point of 242 to 244 °C.

In turn, `O=c1[nH]c(-c2cccc(Oc3ccccc3)c2)no1` showed a melting point of 189 to 191 °C.

`COC(=O)c1sc2nc(CCl)[nH]c(=O)c2c1C`: the melting point was in the range of 276 to 278 °C.

With `Cc1cc(C)n(CCS(C)(=O)=O)n1`, the melting point is 90 to 92 °C.

Regarding `N#CCc1nccn1CC(F)(F)F`, the melting point lay within 106 to 108 °C.

In turn, `COc1ccc2c(c1)OCC(C=O)=C2` showed a melting point of 82 to 84 °C.

`Nc1cc(S(N)(=O)=O)ccc1F`: the melting point was in the range of 134 to 136 °C.

For `COC(=O)c1ccc(Cl)cc1S(=O)(=O)Cl`, the melting point was in the range of 63 to 65 °C.

The molecule `Nc1ncc(Cc2ccccc2Cl)s1` yielded a melting point of 97 to 99 °C.

Consider `Cc1ccccc1C1(C(=O)O)CCCCC1`, for which the melting point was 162 to 164 °C.

`CC1C=CC(C(=O)O)C2C(=O)N(c3ccccc3)C(=O)C12` (centres undefined) returned a melting point of 219 to 221 °C.

In turn, `O=[N+]([O-])c1cn(Cc2ccc(F)cc2)cn1` registered a melting point of 109 to 111 °C.

Regarding `N#Cc1cccc(OCC(F)F)n1`, the melting point lay in the range of 49 to 51 °C.

On to `CN(CCO)c1ccc(N)nc1`, for which the melting point was 82 to 84 °C.

Take `CCCCOc1ccc(C(=O)O)cc1OCCCC`: the melting point is 140 to 142 °C.

Molecule `Cc1ccc(Br)c(S(=O)(=O)Cl)c1` showed a melting point of 57 to 59 °C.

The molecule `CCOc1cccnc1C(=O)O` returned a melting point of 130 to 132 °C.

Consider `COc1cccc(-c2cc(N)n(-c3ccccc3)n2)c1`, for which the melting point lay in the range of 112 to 114 °C.

Turning to `CC(=O)NCCc1ccc(C(=O)CCl)s1`, the melting point is 124 to 126 °C.

The molecule `c1csc(-c2nn[nH]n2)c1` showed a melting point of 201 to 203 °C.

In the case of `NS(=O)(=O)Cc1ccc(C(=O)O)cc1`, the melting point is 275 to 277 °C.

Regarding `Clc1cnc2nc(Cl)oc2c1`, the melting point fell in the range of 68 to 70 °C.

For the molecule `CS(=O)(=O)CCCS(=O)(=O)Cl`, the melting point was in the range of 62 to 64 °C.

In the case of `O=c1[nH]nc(N2CCNCC2)c(=O)[nH]1`, the melting point was in the range of 150 to 152 °C.

On to `Nc1nc(-c2cccc(Oc3ccccc3)c2)ns1`, for which the melting point lay within 138 to 140 °C.

Consider `Cn1cc(CNc2ccccc2C(F)(F)F)cn1`, for which the melting point is 53 to 55 °C.

For the molecule `CC(C)(C)Nc1ccc(C(N)=NO)nc1`, the melting point was 139 to 141 °C.

Molecule `NC(=O)CCCC(=O)O` displayed a melting point of 83 to 85 °C.

As for `Cc1cccc(Cl)c1NC(=O)CBr`, the melting point lay in the range of 139 to 141 °C.

Molecule `O=[N+]([O-])c1cc(S(=O)(=O)Nc2ccc(Br)cc2)ccc1Cl` returned a melting point of 123 to 125 °C.

Molecule `CN(C)c1nc2cc(C#N)ccc2o1` returned a melting point of 203 to 205 °C.

As to `Oc1ccc(C2=Nn3c(nnc3-c3ccc(Br)cc3)SC2)cc1O`, the melting point fell in the range of 269 to 271 °C.

The molecule `O=C1CCc2cc(Br)c(F)cc2N1` came in with a melting point of 210 to 212 °C.

Consider `CC(C)c1ccc(OCCC(=O)O)cc1`, for which the melting point lay in the range of 113 to 115 °C.

In turn, `Cc1ccc(-c2nn(-c3ccccc3)cc2C=O)cc1C` gave a melting point of 102 to 104 °C.

As for `O=Cc1cnn(C2CCS(=O)(=O)C2)c1` (centres undefined), the melting point was 111 to 113 °C.

Take `CC(Cl)C(=O)Nc1ccc(Cl)cc1C(F)(F)F` (centres undefined): the melting point lay within 107 to 109 °C.

`COc1ccc(-c2nnc(SCC(=O)O)o2)cc1` yielded a melting point of 140 to 143 °C.

As for `CCOC(=O)c1csc(CC#N)n1`, the melting point was 77 to 79 °C.

Consider `Cc1ccc2cccnc2c1S(=O)(=O)Cl`, for which the melting point lay in the range of 149 to 151 °C.

Molecule `Cc1oc2c(F)c(F)c(F)c(F)c2c1C(=O)O` yielded a melting point of 206 to 208 °C.

Turning to `CC(=O)Nc1ccc(O)c(C(=O)O)c1`, the melting point lay within 221 to 223 °C.

The molecule `Nc1ccnn1Cc1ccsc1` came in with a melting point of 33 to 35 °C.

Take `NC(=S)c1ccnc(-n2cncn2)c1`: the melting point was in the range of 258 to 260 °C.

As for `OCc1nc2ccccc2o1`, the melting point is 59 to 61 °C.

Take `CC1CCC(N)(C(=O)O)CC1` (centres undefined): the melting point is 200 to 202 °C.

Molecule `Cc1nn(C)c2nc(Cl)c(C=O)cc12` showed a melting point of 182 to 184 °C.

As to `Cc1cc(Br)c(S(=O)(=O)Cl)c(Br)c1`, the melting point fell in the range of 124 to 126 °C.

In the case of `CC1CCCC(C(N)C(=O)O)C1` (centres undefined), the melting point was in the range of 301 to 303 °C.

In turn, `O=C(O)c1ccccc1-c1ncc(-c2ccccc2F)o1` came in with a melting point of 184 to 186 °C.

`Cc1cc(OCC(=O)O)no1` showed a melting point of 123 to 125 °C.

Regarding `CCOC(=O)CN1CCN(S(=O)(=O)c2ccccc2)CC1`, the melting point lay within 75 to 77 °C.

In turn, `ON=Cc1ccc(OCc2ccccn2)cc1` returned a melting point of 154 to 156 °C.

`O=C(O)/C(=C\c1ccccc1)c1cccs1`: the melting point is 169 to 171 °C.

As for `Cc1ccc(N)cc1N1C(=O)CCC1=O`, the melting point lay within 199 to 201 °C.

`N#CCS(=O)(=O)c1cc(Br)ccc1Br`: the melting point is 134 to 136 °C.

As for `CNc1ncccn1`, the melting point lay within 60 to 62 °C.

In turn, `NS(=O)(=O)c1cc([N+](=O)[O-])ccc1Cl` showed a melting point of 155 to 157 °C.

Take `CC(C)(C)c1ccc(C(=O)N=C=S)cc1`: the melting point lay within 33 to 35 °C.

`COc1cc(C=O)c(Br)cc1O` came in with a melting point of 175 to 177 °C.

`Cc1ccc(C)c(-n2ccnc2S)c1` gave a melting point of 192 to 194 °C.

`CC(C)(C)c1nc(C(=O)O)cs1`: the melting point fell in the range of 126 to 128 °C.

For the molecule `O=C(CCl)Nc1cc(C2CC2)nn1-c1ccccc1`, the melting point was 120 to 122 °C.

`Cc1ccc(S(=O)(=O)N(CCC(=O)O)c2ccccc2)cc1` gave a melting point of 145 to 147 °C.

The molecule `CCOC(=O)C1=C(CCl)NC(=O)NC1c1ccc(OC)cc1` (centres undefined) registered a melting point of 169 to 171 °C.

`N#CCN1CCN(c2ncccn2)CC1` registered a melting point of 99 to 101 °C.

In turn, `Nc1ccc(S(=O)(=O)N=C2CCCCCN2)cc1` came in with a melting point of 115 to 117 °C.

In the case of `O=C(O)c1sccc1S(=O)(=O)N1CCCC1`, the melting point was in the range of 128 to 130 °C.

Take `O=C(O)c1ccc(F)c(COc2ccc(F)cc2)c1`: the melting point lay in the range of 149 to 151 °C.

As to `FC(F)(F)c1ccc2nnc(C3CCCNC3)n2c1` (centres undefined), the melting point fell in the range of 226 to 228 °C.

Take `Cc1cc(C2(C)NC(=O)NC2=O)c(C)o1` (centres undefined): the melting point was 144 to 146 °C.

Molecule `CC(C)(C)OC(=O)N1CCC(C(=O)O)(c2ccccc2)CC1` came in with a melting point of 116 to 118 °C.

`Cc1cc(C)cc(N(CCC(=O)O)S(=O)(=O)c2ccc(Br)cc2)c1`: the melting point was 133 to 135 °C.

On to `Cc1cc(N)ccc1C(=O)N(C)C`, for which the melting point is 162 to 164 °C.

Turning to `Cc1ccnc(S(N)(=O)=O)c1`, the melting point lay within 163 to 165 °C.

For `CCCOC(=O)c1ccc(S(=O)(=O)Cl)cc1`, the melting point lay in the range of 36 to 38 °C.

`NC(CC1CCOC1)C(=O)O` (centres undefined): the melting point fell in the range of 269 to 271 °C.

`CC(C)(C)C1CCN(S(=O)(=O)Cl)CC1` had a melting point of 69 to 71 °C.

`N#Cc1ccc(CO)cc1` returned a melting point of 39 to 43 °C.

As to `CS(=O)(=O)c1ccc(F)c(S(=O)(=O)Cl)c1`, the melting point lay within 122 to 124 °C.

Molecule `O=C(O)c1cc([N+](=O)[O-])c(F)c([N+](=O)[O-])c1` showed a melting point of 237 to 239 °C.

As to `NCc1ccnc(N2CCCC2)n1`, the melting point fell in the range of 63 to 65 °C.

Turning to `CCOc1ccc(-c2nc(N)sc2C)cc1`, the melting point lay in the range of 98 to 100 °C.

As to `CCOC(C)C(N)=NO` (centres undefined), the melting point lay in the range of 88 to 90 °C.

The molecule `O=Cc1cn(Cc2ccccc2)nc1-c1cccs1` showed a melting point of 90 to 91 °C.

For the molecule `Cc1cc(O)c(C(=O)O)cc1S(=O)(=O)Cl`, the melting point is 162 to 164 °C.

With `CCN(CC)S(=O)(=O)c1ccc(CC#N)nc1`, the melting point lay within 72 to 74 °C.

`O=c1ccc(-c2cccc([N+](=O)[O-])c2)n[nH]1` returned a melting point of 274 to 276 °C.

In turn, `O=C(O)C(Oc1ccc(F)cc1Br)c1ccccc1` (centres undefined) showed a melting point of 133 to 135 °C.

In turn, `O=C(CCl)c1cc([N+](=O)[O-])c[nH]1` came in with a melting point of 199 to 201 °C.

Molecule `CC(C)(C)c1ccc2c(c1)C(=O)C(=O)N2` returned a melting point of 145 to 147 °C.

For the molecule `COC(=O)c1ccc2[nH]ncc2c1`, the melting point is 193 to 195 °C.

Turning to `Cc1ccc(CNC(=O)C2CCNCC2)cc1`, the melting point was in the range of 157 to 159 °C.

(Values after a melting point compilation (Tetko et al.).)
